Patent publication US5380732A, “Pesticidal compounds” (priority 1986, dated 1995)

Tests used:
Type in all cases: in vivo
Tetranychus urticae = test: leaf discs of infested french bean sprayed (Example C); details: 2 days, 25° C.
Description: (§1) The compounds of the invention were tested by dissolving them in acetone (5%) and then diluting in water/`Synperonic` (94.5%/0.5%) to give a water emulsion. ("Synperonic" is a R.T.M. of I.C.I. plc and is nonylphenol ethoxylate in aqueous solution to give 27%; available from B.D.H., Poole, Dorset, England). The solution was then used to treat the following insects.
Leaf discs of infested french bean were sprayed with the solution containing the compound. Mortality was assessed after 2 days at 25° C.

Musca domestica = test: spray onto 20 female Musca, mortality after 2 days (Example C); details: 25° C.
Description: as §1
20 female Musca were contained in a cardboard cylinder with gauze over either end. Solution containing the compound was sprayed onto the insects so enclosed and mortality assessed after 2 days at 25° C.

Sitophilus granarius = test: adults on treated wheat, mortality after 6 days, Sitophilus (Example C); details: 25° C.
Description: as §1
20 adult Sitophilus and Tribolium were added to 10 g wheat which had been previously treated with 2 ml of the solution containing the compound. Mortality was assessed after 6 days at 25° C.

Myzus persicae = test: adult Myzus on chinese cabbage leaf disc sprayed (Example C); details: 2 days, 25° C.
Description: as §1
10 adult Myzus were placed on a leaf disc of chinese cabbage. 24 hours later the disc was sprayed with the solution containing the compound. Mortality was assessed after 2 days at 25° C.

Plutella xylostella = test: fourth instar Plutella larvae sprayed and added to sprayed chinese cabbage leaf (Example C); details: 2 days, 25° C.
Description: as §1
7 Fourth instar Plutella larvae were sprayea with the solution containing the compound and added to a chinese cabbage leaf which had been similarly sprayed and left to dry. Mortality was assessed after 2 days at 25° C.

CC(C=CCCCCCCCOc1cccnc1Cl)=CC(=O)NC(C)C(C)C (stereo not drawn) [Example 27]
active (mortality) (Tetranychus urticae; at 1000 ppm): active

CC(C)CNC(=O)C=CC=CCCCCCCCOc1cc(C(F)(F)F)cc(Cl)n1 [Example 10]
active (mortality) (Musca domestica; at 1000 ppm): active
active (mortality) (Sitophilus granarius): active

CC(C)CNC(=O)C=CC=CCCCCCCCOc1ncccc1Cl [Example 12]
active (mortality) (Myzus persicae; at 1000 ppm): active

CC(C)CNC(=O)C=CC=CCCCCCCCOc1ccccn1 [Example 15]
active (mortality) (Myzus persicae; at 200 ppm): active

CC(C)CNC(=O)C=CC=CCCCCCOc1cccc(Cl)n1 [Example 14]
active (mortality) (Myzus persicae; at 1000 ppm): active

CC(C)CNC(=O)C=CC=CCCCCCCCOc1cccnc1Br [Example 28]
active (mortality) (Tetranychus urticae; at 1000 ppm): active

CC(C)CNC(=O)C=CC=CCCCCCCCOc1ccc(C(F)(F)F)cn1 [Example 6]
active (mortality) (Musca domestica; at 1000 ppm): active

CC(C)C(C)NC(=O)C=CC=CCCCCCCCOc1cncc(Cl)c1 (stereo not drawn) [Example 24]
active (mortality) (Plutella xylostella; at 1000 ppm): active

(2E,4E) N-1-Methylpropyl 12-(4'-chloro-2-pyrimidyloxy) dodeca-2,4-dienamide and (2E,4E) N-1-Methylpropyl 12-(2-chloro-4'-pyrimidyloxy) -dodeca-2,4-dienamide [Example 34]
active (mortality) (Tetranychus urticae; at 1000 ppm): active

CC(C)CNC(=O)C=CC=CCCCCCCCOc1cncc(Cl)c1 [Example 25]
active (mortality) (Tetranychus urticae; at 200 ppm): active

CCC(C)NC(=O)C=C(C)C=CCCCCCCCOc1ncccc1Cl (stereo not drawn) [Example 13]
active (mortality) (Myzus persicae; at 200 ppm): active

CCC(C)NC(=O)/C=C/C=C/CCCCCCCOc1ccncc1 (stereo not drawn) [Example 30, (2E,4E) -N-(1-methylpropyl) 12-(4'-pyridyloxy)dodeca-2,4-dienamide]
active (mortality) (Myzus persicae; at 1000 ppm): active

CC(C)CNC(=O)/C=C/C=C/CCCCCCCOc1cccc(C(F)(F)F)n1 [Example 3, (2E,4E) N-isobutyl 12-(6trifluoromethyl-2'-pyridyloxy) dodeca-2,4-dienamide]
active (mortality) (Tetranychus urticae; at 1000 ppm): active
active (mortality) (Musca domestica; at 200 ppm): active

(2E/Z,4E) N-Isobutyl 3-methyl-12-(4-chloro-2'-pyrimidyloxy) -dodeca-2,4-dienamide and (2E/Z,4E) N-Isobutyl 3-methyl-12-(2-chloro-4'-pyrimidyloxy) -dodeca-2,4-dienamide [Example 33]
active (mortality) (Myzus persicae; at 1000 ppm): active

CC(C=CCCCCCCCOc1cccc(Cl)n1)=CC(=O)NCC(C)C [Example 9]
active (mortality) (Plutella xylostella; at 200 ppm): active
active (mortality) (Tetranychus urticae; at 200 ppm): active
active (mortality) (Musca domestica; at 1000 ppm): active

CCC(C)NC(=O)C=CC=CCCCCCCCOc1cccc(C(F)(F)F)n1 (stereo not drawn) [Example 4]
active (mortality) (Tetranychus urticae; at 1000 ppm): active
active (mortality) (Musca domestica; at 200 ppm): active

CCC(C)NC(=O)C=CC=CCCCCCCCOc1ccccn1 (stereo not drawn) [Example 16]
active (mortality) (Musca domestica; at 1000 ppm): active
active (mortality) (Myzus persicae; at 200 ppm): active

CC(C=CCCCCCCCOc1cc(C(F)(F)F)cc(C(F)(F)F)n1)=CC(=O)NCC(C)C [Example 23]
active (mortality) (Tetranychus urticae; at 1000 ppm): active
active (mortality) (Musca domestica; at 1000 ppm): active

(2E,4E) N-Isobutyl 12-(4'-chloro-2'-pyrimidyloxy)-dodeca-2,4-dienamide and (2E,4E) N-Isobutyl 12-(2'-chloro-4-pyrimidyloxy)-dodeca-2,4-dienamide [Example 32]
active (mortality) (Tetranychus urticae; at 1000 ppm): active

CC(C=CCCCCCCCOc1ccc(Cl)cn1)=CC(=O)NCC(C)C [Example 18]
active (mortality) (Plutella xylostella; at 1000 ppm): active
active (mortality) (Tetranychus urticae; at 1000 ppm): active
active (mortality) (Musca domestica; at 1000 ppm): active
active (mortality) (Myzus persicae; at 1000 ppm): active
